From patent US20170042899A1, “Use of Tetrahydrobiopterine Derivatives in the Treatment and Nutrition of Patients With Amino Acid Metabolic Disorders” (BioMarin Pharmaceutical Inc., priority 2002, published 2017)

Legend:
[1] = tested on: patients with a lack of tetrahydrobiopterine; settings: more than 350 patients with a lack of tetrahydrobiopterine treated with the co-factor; cited from earlier work
[2] = tested on: persons with a deficiency in phenylalanine hydroxylase; assay: Combined phenylalanine and tetrahydrobiopterine exposure or stress test (phenylalanine concentration in blood); format: in vivo, human; settings: for patients with a response to tetrahydrobiopterine: blood phenylalanine sank by at least 30% 15 hours after exposure
Source text: In order to research the therapeutic effectiveness of tetrahydrobiopterine, one carries out a combined phenylalanine tetrahydrobiopterine stress test for diagnostic and analyzes the effect in vivo by means of determining the [^13C] phenylalanine oxidation rate and 38 persons with a deficiency in phenylalanine hydroxylase prior to and subsequent to the administration of tetrahydrobiopterine derivatives. The response to tetrahydrobiopterine was associated with certain genotypes, and we localized mutations on the basis of the structural models of the phenylalanine hydroxylase monomer and the therefrom derived protein misfolding. We obtained the written consent of the families of 38 children, which suffered from various subset forms of hyperphenylalaninamie. The classification occurred depending upon the plasma phenylalanine concentration prior to treatment: less than 600 μmol/l, mild hyperphenylalaninamie, n=10, age 15 days through 10 years; 600-1200 μmol/l, mild, n=21, age 8 days through 17 years; greater than 1200 μmol, classical phenylketonurea, n=7, age 1 day through 9 years. A defect in this tetrahydrobiopterine biosynthesis or in the recycling of the tetrahydrobiopterine was ruled out by an analysis of the pterine value in urine and the dihydropteridine-reductase activity in erythrocytes. We examined seven patients during the newborn period and 31 as they were already older. Afflicted siblings (n=5) were likewise included in the study, since it is known that non-genetic factors influence the phenylalanine homeostasis. The uptake of phenylalanine was accomplished in that the patients were allowed to take a meal with 100 mg phenylalanine per kilogram body weight. One hour after the end of the meal the patients took 20 mg tetrahydrobiopterine per kilogram (Schircks Laboratories, Jona, Switzerland). The phenylalanine concentration in blood was determined by an electro spray ionization tandem mass spectroscopy—prior to the uptake of phenylalanine and prior to and subsequent to (at 4, 8 and 15 hours) provocation or exposure to tetrahydrobiopterine. During the test phase the newborns were fed with mothers milk, while the older children received a standardized protein supply (10 mg phenylalanine per kg) between six and eight hours after the exposure to tetrahydrobiopterine. The patients were classified as reacting to tetrahydrobiopterine if the phenylalanine concentration in the blood 15 hours after the exposure to tetrahydrobiopterine sank by at least 30% in comparison to the value prior to the intake of tetrahydrobiopterine.

[3] = tested on: persons with a deficiency in phenylalanine hydroxylase; assay: In vivo analysis of L-[13C]phenylalanine oxidation (13CO2 breath test); parameters: species or system human
Source text: In order to research the therapeutic effectiveness of tetrahydrobiopterine, one carries out a combined phenylalanine tetrahydrobiopterine stress test for diagnostic and analyzes the effect in vivo by means of determining the [^13C] phenylalanine oxidation rate and 38 persons with a deficiency in phenylalanine hydroxylase prior to and subsequent to the administration of tetrahydrobiopterine derivatives. The response to tetrahydrobiopterine was associated with certain genotypes, and we localized mutations on the basis of the structural models of the phenylalanine hydroxylase monomer and the therefrom derived protein misfolding.
The tests were carried out after a four hour fast in small children and an overnight fast in older children. Overall 6 mg L-[1^−13C] phenylalanine (Euriostop, Paris, France) per kilogram body weight were taken in orally. The tracer was dissolved in a 25% dextrose solution (2 mg per milliliter). Subsequently breath samples were taken over a period of 180 minutes and stored in air-free glass pipes until analysis by means of isotope mass spectroscopy (deltaS, Thermoquest, Bremen). The recapture of carbon-13 in the breath samples was calculated, as described by Treacy et al, wherein a total carbon dioxide of 300 mmol per hour×[…] of body surface was assumed. The ^13CO2-production was represented as a cumulative percentage rate of the calculated dose against time. The validity of the results in the newborn could have been influenced by the nutrition or the fact that the collection of the breath sample is more difficult with them than with older children. […] In cross section, less than one (older children) and less than two (newborns) of 27 sequential ^13CO2 measurements, which were obtained during the 180 minutes of an individual test, were not capable of interpretation.
Patients with various clinical stages of illness achieved basile cumulative ^13CO2 recapture rates, which respectively reflected their individual rest phenylalanine oxidation capacity (classic phenylketonurea, average value 1.4%; mild phenylketonurea, 3.1%; mild hyperphenylalaninamie, 5.6%; the healthy comparison group 9.0%). […] The rise was more clearly pronounced in patients with a mild phenylketonurea than in patients with a mild hyperphenylalaninamie (FIG. 2A). […] This is associated therewith that with longer therapies, also in the cases of hyperphenylalaninamie derivative, improvement by tetrahydrobiopterine could be achieved.

[4] = tested on: children with mild phenylketonurea; assay: Long time treatment with tetrahydrobiopterine replacing the phenylalanine poor diet; format: in vivo, human; settings: five children
Method: The families with five children aged from 4 to 14 years with mild phenylketonurea consented to a therapeutic test, in which the phenylalanine poor diet was replaced by an oral administration of tetrahydrobiopterine in daily doses between 7.1 and 10.7 mg/kg body weight. The treatment lasted 207±51.3 days (average±SD; length 166-263).

[5] = Serum residence time; settings: in vivo
[6] = a patient with classic phenylketonurea

SMILES	dose dependent undesired side effects [1]	phenylalanine concentration in the blood after exposure ([2]; 23 of the 27 patients reacting to tetrahydrobiopterine)	patients in whom tetrahydrobiopterine significantly decreased the phenylalanine content in the blood and improved the phenylalanine oxidation ([2]; 27 of the 31 patients with mild hyperphenylalaninamie (n=10) or mild phenylketonurea (n=21))	phenylalanine concentration in blood, change [2, 6]	patients satisfying the criteria of a strong response to tetrahydrobiopterine ([2]; classical phenylketonurea (n=7))	patients with a response to tetrahydrobiopterine ([2]; mild hyperphenylalaninamie)	patients with a response to tetrahydrobiopterine ([2]; mild phenylketonurea)	phenylalanine concentration in the blood after exposure ([2]; patients which did not react)	total 13CO2 recapture after treatment ([3]; 10 mg/kg body weight, 24 hours, patients which had responded to the stress test)	persons reacting to tetrahydrobiopterine that achieved oxidation rates in a normal level ([3]; 27 persons reacting to tetrahydrobiopterine)	phenylalanine oxidation rate, change [3, 6]	patients which did not respond exhibiting a mild rise in phenylalanine oxidation ([3]; after short time therapy with tetrahydrobiopterine)	phenylalanine concentration in blood during the pure cofactor treatment ([4]; diet replaced by tetrahydrobiopterine)	daily phenylalanine tolerance with treatment (range) ([4]; oral 7.1-10.7 mg/kg body weight daily)	daily phenylalanine tolerance with treatment (average±SD) ([4]; oral 7.1-10.7 mg/kg body weight daily, 207±51.3 days)	serum residence time [5]
C[C@H](O)[C@H](O)[C@H]1CNc2[nH]c(N)nc(=O)c2N1.Cl.Cl [BIOPTEN, sapropterinhydrochloride]	interference with sleep, polyurea and thin stool															
C[C@H](O)[C@H](O)[C@H]1CNc2nc(N)[nH]c(=O)c2N1 [tetrahydrobiopterine, 5,6,7,8-tetrahydrobiopterine]		less than 200 μmol/l	87%	slight increase	none	all ten	17 of 21	exceeded 400 μmol/l	rose significantly	22 of the 27	improvement	8 of 11	378 ± 173 µmol/L	17.9-90 mg/kg body weight	61.4±27.9 mg/kg body weight	approximately 8 hours
